Results from US9695155B2, “Herbicidal substituted pyrimidinyloxy benzene compounds” (E. I. DU PONT DE NEMOURS AND COMPANY, priority 2013, dated 2017).

Key:
barnyardgrass [1] = test: Test A preemergence; type: in vivo, Echinochloa crus-galli; settings: 1000 g ai/ha, 0 to 100 scale, 0 no effect, 100 complete control, approx. 10 days
How it was run: (§1)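 Greenhouse pot test, loam/sand soil. Formulation: non-phytotoxic solvent mix plus surfactant. Pre: directed spray onto soil after sowing. Post: plants at 1–2 leaf, 2–10 cm. Rated visually vs untreated controls at ~10 d, 0 (no effect) to 100 (complete control).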

kochia [2] = test: Test A preemergence; type: in vivo, Kochia scoparia; settings: 1000 g ai/ha, 0 to 100 scale, 0 no effect, 100 complete control, approx. 10 days
From the text: (§2) Seeds of plant species selected from barnyardgrass (Echinochloa crus-galli), kochia (Kochia scoparia), ragweed (common ragweed, Ambrosia elatior), Italian ryegrass (Lolium multiflorum), large (Lg) crabgrass (Digitaria sanguinalis), giant foxtail (Setaria faberii), morningglory (Ipomoea spp.), pigweed (Amaranthus retroflexus), velvetleaf (Abutilon theophrasti), wheat (Triticum aestivum), and corn (Zea mays) were planted into a blend of loam soil and sand and treated preemergence with a directed soil spray using test chemicals formulated in a non-phytotoxic solvent mixture which included a surfactant.
(§3) At the same time, plants selected from these crop and weed species and also blackgrass (Alopecurus myosuroides), and galium (catchweed bedstraw, Galium aparine) were planted in pots containing the same blend of loam soil and sand and treated with postemergence applications of test chemicals formulated in the same manner. Plants ranged in height from 2 to 10 cm and were in the one- to two-leaf stage for the postemergence treatment. Treated plants and untreated controls were maintained in a greenhouse for approximately 10 days, after which time all treated plants were compared to untreated controls and visually evaluated for injury. Plant response ratings, summarized in Table A, are based on a 0 to 100 scale where 0 is no effect and 100 is complete control. A dash (-) response means no test result.

ragweed [3] = test: Test A preemergence; type: in vivo, Ambrosia elatior; settings: 1000 g ai/ha, 0 to 100 scale, 0 no effect, 100 complete control, approx. 10 days
From the text: as §2, §3

Italian ryegrass [4] = test: Test A preemergence; type: in vivo, Lolium multiflorum; settings: 1000 g ai/ha, 0 to 100 scale, 0 no effect, 100 complete control, approx. 10 days
From the text: as §2, §3

giant foxtail [5] = test: Test A preemergence; type: in vivo, Setaria faberii; settings: 1000 g ai/ha, 0 to 100 scale, 0 no effect, 100 complete control, approx. 10 days
How it was run: as §1

pigweed [6] = test: Test A preemergence; type: in vivo, Amaranthus retroflexus; settings: 1000 g ai/ha, 0 to 100 scale, 0 no effect, 100 complete control, approx. 10 days
How it was run: as §1

barnyardgrass [7] = test: Test A postemergence; type: in vivo, Echinochloa crus-galli; settings: 1000 g ai/ha, 0 to 100 scale, 0 no effect, 100 complete control
How it was run: as §1

kochia [8] = test: Test A postemergence; type: in vivo, Kochia scoparia; settings: 1000 g ai/ha, 0 to 100 scale, 0 no effect, 100 complete control
From the text: as §2, §3

ragweed [9] = test: Test A postemergence; type: in vivo, Ambrosia elatior; settings: 1000 g ai/ha, 0 to 100 scale, 0 no effect, 100 complete control
From the text: as §2, §3

Italian ryegrass [10] = test: Test A postemergence; type: in vivo, Lolium multiflorum; settings: 1000 g ai/ha, 0 to 100 scale, 0 no effect, 100 complete control
From the text: as §2, §3

giant foxtail [11] = test: Test A postemergence; type: in vivo, Setaria faberii; settings: 1000 g ai/ha, 0 to 100 scale, 0 no effect, 100 complete control
How it was run: as §1

pigweed [12] = test: Test A postemergence; type: in vivo, Amaranthus retroflexus; settings: 1000 g ai/ha, 0 to 100 scale, 0 no effect, 100 complete control
How it was run: as §1

wheat = test: Test A postemergence; type: in vivo, Triticum aestivum; settings: 1000 g ai/ha, 0 to 100 scale, 0 no effect, 100 complete control
How it was run: as §1

corn = test: Test A postemergence; type: in vivo, Zea mays; settings: 1000 g ai/ha, 0 to 100 scale, 0 no effect, 100 complete control
How it was run: as §1

blackgrass = test: Test A postemergence; type: in vivo, Alopecurus myosuroides; settings: 1000 g ai/ha, 0 to 100 scale, 0 no effect, 100 complete control
From the text: as §2, §3

galium = test: Test A postemergence; type: in vivo, Galium aparine; settings: 1000 g ai/ha, 0 to 100 scale, 0 no effect, 100 complete control
From the text: as §2, §3

| Structure (SMILES) | Barnyardgrass plant response rating (barnyardgrass [1]) | Kochia plant response rating (kochia [2]) | Ragweed plant response rating (ragweed [3]) | Ryegrass, Italian plant response rating (Italian ryegrass [4]) | Foxtail, Giant plant response rating (giant foxtail [5]) | Pigweed plant response rating (pigweed [6]) | Plant response rating, Barnyardgrass (barnyardgrass [7]) | Plant response rating, Kochia (kochia [8]) | Plant response rating, Ragweed (ragweed [9]) | Plant response rating, Ryegrass, Italian (Italian ryegrass [10]) | Plant response rating, Foxtail, Giant (giant foxtail [11]) | Plant response rating, Pigweed (pigweed [12]) | Plant response rating, Wheat (wheat) | Plant response rating, Corn (corn) | Plant response rating, Blackgrass (blackgrass) | Plant response rating, Galium (galium) |
| --- | --- | --- | --- | --- | --- | --- | --- | --- | --- | --- | --- | --- | --- | --- | --- | --- |
| CCN(CC)C(=O)c1cccc(Oc2ncc(Cl)cn2)c1-n1cc(C(F)(F)F)cn1 [Compound 263] | 0 | 20 | 0 | 0 | 50 | 10 | 0 | 10 | 0 | 0 | 0 | 10 | 0 | 0 | 20 | 10 |
| CCNC(=O)c1cccc(Oc2ncc(Cl)cn2)c1-n1cc(C(F)(F)F)cn1 [Compound 257] | 50 | 70 | 70 | 20 | 70 | 80 | 10 | 60 | 30 | 0 | 10 | 40 | 0 | 0 | 10 | 30 |
